One assay concerns S. aureus Newman biofilm. Description: S. aureus Newman biofilm formation in microtiter plates. Type of assay: cell-based. On the procedure: (§1) These compounds were then tested on staphylococcus biofilm formation. […] The two compounds (CCG-203592 and CCG-205363) were tested on S. aurues strain RN6390, which is reported to be more prone to biofilm formation than Newman strain.
The subject of assay [1] is S. aureus virulence factor genes. Description: S. aureus virulence factor gene expression, real time RT-PCR. The class given is cell-based. Particulars: RN6390, 50 μM; ML, LL and S growth phase.
The test system of the next assay is S. aureus. Description: S. aureus growth inhibition, optical density, test/control. The class given is cell-based, Staphylococcus aureus. The following applies: growth of bacteria test/control by optical density; for activity at 100 µM: Staphylococcus aureus.
For the next assay, the system named is S. aureus biofilm. Description: S. aureus biofilm inhibition, optical density, test/control. Type of assay: cell-based, Staphylococcus aureus. The following applies: for activity at 10 µM / activity at 100 µM: Staphylococcus aureus.
The test system of a further assay is S. aurues strain RN6390. Description: S. aureus RN6390 bacterial growth. Type of assay: cell-based. Particulars: at 20 μM. How it is done:
as §1

The subject of assay [2] is S. aureus RN6390 strain biofilm. Description: microbe, parasite or virus in culture. The class given is cell-based. The following applies: for IC50: Staphylococcus aureus, read-out: IC50, inhibition of RN6390 biofilm formation.
The test system of another assay is S. epidermis. Description: S. epidermis growth inhibition, optical density, test/control. The class given is cell-based, Staphylococcus epidermidis. Particulars: for activity at 100 µM: Staphylococcus epidermidis, growth of bacteria test/control by optical density.
Another assay has as its system S. epidermis biofilm. Description: S. epidermis biofilm inhibition, optical density, test/control. The following applies: for S. epidermis Biofilm inhibition 10 μM vs. (−) Control / activity at 100 µM: growth of biofilm test/control by optical density; for activity at 100 µM: Staphylococcus epidermidis, read-out: S. epidermis Biofilm inhibition 100 μM vs. (−) Control, 100 μM.

For another assay, the system named is S. aureus Newman strain. Description: S. aureus lung infection model in mice. The following applies: intranasal S. aureus Newman, 3-4×10^8 CFU per mouse.
Assay [3] has as its system S. aureus RN6390 strain biofilm. Description: Biofilm formation on medical grade silicone sheet. Type of assay: cell-based.
Another assay relates to P. aeruginosa. Description: P. aeruginosa wound infection in DIO mice. The following applies: female DIO mice, 10^8 CFU; vancomycin treatment alone. Type of assay: in vivo.
Assay [4] concerns group A streptococcus (GAS). Description: Group A streptococcus infection in mice. Type of assay: in vivo. Particulars: GAS 105-6 CFU per mouse. How it is done:
FIGS. 1A & 1B show the identification of a chemical series of compounds inhibiting group A streptococcus virulence. FIG. 1A) Microarray analysis of gene expression changes in MGAS2221 treated with CCG-102487 compared to DMSO. FIG. 1B) Effect of CCG-2979 on mice survival after infection with GAS (105-6 CFU per mouse).
A number of small molecules that can inhibit SK expression without impeding bacterial growth were evaluated. Furthermore, these compounds can inhibit gene expression of a broad spectrum of streptococcal virulence factors (FIG. 1A).

Setting [5] is: growth of biofilm test/control by optical density.
Setting [6] is: 100 μM, growth of biofilm test/control by optical density.

Structures are written as SMILES. “Also recorded” adds a separate entry of the source.

Regarding `C=CCSc1nc2c(c(=O)n1CC=C)C(C)(C)Cc1cc(OC)ccc1-2` [CCG-205363], the “S. aureus Newman biofilm formation” value in the assay on S. aureus Newman biofilm was “consistent inhibition”. Further, the “S. aureus virulence factor gene expression” value in assay [1] is on record as “inhibited gene expression”. The activity at 100 µM in the assay on S. aureus is 95%. The activity at 10 µM in the assay with S. aureus biofilm (setting [5]) was determined as 63.1%. Moreover, in the assay with S. aureus biofilm (setting [6]), the activity at 100 µM amounted to 44%. For the same compound, in the assay with S. aurues strain RN6390, the bacteria growth entry is listed as “without inhibiting bacteria growth”. For the same compound, in [2], the “IC50, inhibition of S. aureus biofilm formation” value is recorded as “low μM range” and the IC50 is 6.96 ± 0.76 µM.
Regarding `C=CCn1c(SCCOC)nc2c(c1=O)C1(CCNCC1)Cc1ccccc1-2` [CCG-205447, 3-Allyl-2-((2-methoxyethyl)thio)-3H-spiro[benzo[h]quinazoline-5,4′-piperidin]-4(6H)-one], the results for the activity at 100 µM in the assay with S. epidermis and with S. aureus were 104% and 90%, respectively. In addition, the “S. epidermis Biofilm inhibition 10 μM vs. (−) Control” value in the assay with S. epidermis biofilm worked out at 0.936. For the same compound, in the assay with S. aureus biofilm (setting [5]), the activity at 10 µM stood at 110%.
In the case of `COCCOCCOc1nc(SCCOC)nc2c1C(C)(C)Cc1ccccc1-2` [CCG-204033, 4-(2-(2-Methoxyethoxy)ethoxy)-2-((2-methoxyethyl)thio)-5,5-dimethyl-5,6-dihydrobenzo[h]-quinazoline], the activity at 100 µM in the assay on S. epidermis turned out to be 103%; with S. epidermis biofilm, 75.6%; in the assay with S. aureus, 83.8%; in the assay on S. aureus biofilm (setting [6]), 59.9%.
With `C=CCn1c(SCC)nc2c(c1=O)C(C)(C)Cc1cc(OCCN3CCOCC3)ccc1-2` [CCG-205427], the figures for the activity at 100 µM in the assay on S. epidermis, in the assay with S. epidermis biofilm and with S. aureus were 98%, 76.6% and 92.8%, respectively. In addition, the activity at 10 µM in the assay on S. aureus biofilm (setting [5]) was 73.4%.
Consider `COCCSc1nc(OCCCO)c2c(n1)-c1ccccc1CC2(C)C` [CCG-205384, 3-((2-((2-Methoxyethyl)thio)-5,5-dimethyl-5,6-dihydrobenzo[h]quinazolin-4-yl)oxy)propan-1-ol], for which the activity at 100 µM with S. epidermis came out at 100%; in the assay with S. aureus, 93.5%; in the assay with S. aureus biofilm (setting [6]), 16%. For the same compound, in the assay on S. epidermis biofilm, the “S. epidermis Biofilm inhibition 10 μM vs. (−) Control” value is 1.095.
As for `COCCSc1nc(OCC2OCCO2)c2c(n1)-c1ccccc1CC2(C)C` [CCG-204030, 4-((1,3-dioxolan-2-yl)methoxy)-2-((2-methoxyethyl)thio)-5,5-dimethyl-5,6-dihydrobenzo[h]-quinazoline], the activity at 100 µM turned out to be 111% in the assay with S. epidermis and 73.9% with S. epidermis biofilm. Further, the “Growth Inhibition 100 μM vs. (−) Control” value in the assay on S. aureus was found to be 0.919. Moreover, the “S. aureus Biofilm Inhibition 100 μM vs. (−) Control” value in the assay on S. aureus biofilm (setting [6]) is recorded as 0.589.
`C=CCn1c(SCCOC)nc2c(c1=O)C1(CCN(C(=O)CCCC)CC1)Cc1ccccc1-2` [CCG-206227, 3-Allyl-2-((2-methoxyethyl)thio)-1′-pentanoyl-3H-spiro[benzo[h]quinazoline-5,4′-piperidin]-4(6H)-one]: the activity at 100 µM in the assay with S. epidermis amounted to 141%. Further, in the assay on S. epidermis biofilm, the “biofilm formation by S. epidermis” value is “inhibit biofilm formation” and the “S. epidermis Biofilm inhibition 10 μM vs. (−) Control” value came to 0.943. Besides, the “biofilm formation by S. aureus” value in the assay on S. aureus biofilm is given as “inhibit biofilm formation”. In addition, the activity at 10 µM in the assay on S. aureus biofilm (setting [5]) is 52.8%. For the same compound, the activity at 100 µM in the assay with S. aureus biofilm (setting [6]) was 27%.
In the case of `C=CCn1c(SCC)nc2c(c1=O)C(C)(C)Cc1cc(OC)ccc1-2` [CCG-203592], in the assay with S. aureus Newman strain, the “protection of mice in S. aureus lung infection model” value is “in vivo efficacy in protecting mice”. The “S. aureus Newman biofilm formation” value with S. aureus Newman biofilm is given as “consistent inhibition”. In addition, in assay [1], the “S. aureus virulence factor gene expression” value is reported as “down regulated; also recorded: inhibited gene expression”. The activity at 100 µM in the assay on S. aureus was found to be 110%. Besides, the activity at 10 µM in the assay on S. aureus biofilm (setting [5]) was determined as 40.2%. Moreover, in the assay with S. aureus biofilm (setting [6]), the activity at 100 µM worked out at 23%. For the same compound, the “biofilm formation on the surface of silicone sheet” value in [3] is on record as “decreased biofilm formation”. Moreover, in the assay with S. aurues strain RN6390, the bacteria growth result is reported as “without inhibiting bacteria growth”. In assay [2], the “IC50, inhibition of S. aureus biofilm formation” value was “low μM range” and the IC50 was determined as 2.42 ± 0.14 µM.
Regarding `C=CCn1c(NCC)nc2c(c1=O)C(C)(C)Cc1ccccc1-2` [CCG-203804], the activity at 100 µM in the assay with S. epidermis came to 103%; with S. aureus it was 66.2%; in the assay with S. aureus biofilm (setting [6]) it was 10.3%. Further, the “S. epidermis Biofilm inhibition 10 μM vs. (−) Control” value with S. epidermis biofilm amounted to 0.858.
Regarding `C=CCn1c(NCC)nc2c(c1=O)C1(CCCCC1)Cc1ccccc1-2` [CCG-203043], the “S. epidermidis bacterial growth” value in the assay with S. epidermis (RP62A strain) was “without inhibition of bacterial growth”. Also, the “S. epidermis Biofilm inhibition 10 μM vs. (−) Control” value in the assay on S. epidermis biofilm was determined as 0.169. The “S. epidermidis biofilm formation” value in the assay on S. epidermis biofilm (RP62A strain, microtiter plate) is given as “strong inhibition”. Besides, the activity at 100 µM came to 45% in the assay on S. epidermis biofilm, 70% in the assay with S. aureus and 43.5% in the assay with S. aureus biofilm (setting [6]).
`CN[C@H](CC(C)C)C(=O)N[C@H]1C(=O)N[C@@H](CC(N)=O)C(=O)N[C@H]2C(=O)N[C@H]3C(=O)N[C@H](C(=O)N[C@H](C(=O)O)c4cc(O)cc(O)c4-c4cc3ccc4O)[C@H](O)c3ccc(c(Cl)c3)Oc3cc2cc(c3O[C@@H]2O[C@H](CO)[C@@H](O)[C@H](O)[C@H]2O[C@H]2C[C@](C)(N)[C@H](O)[C@H](C)O2)Oc2ccc(cc2Cl)[C@H]1O` [vancomycin, reference compound] displayed a survival in the assay with P. aeruginosa of 40%.
For the compound `C=CCn1c(SCCCC)nc2c(c1=O)C1(CCCCC1)Cc1ccccc1-2` [CCG-2979], in assay [4], the “protection of mice against group A streptococcal infection (survival)” value is recorded as “capable of protecting mice”.

These data come from patent US10441588B2, “Methods and compositions for treating bacterial infection” (Curators of the University of Missouri, priority 2012, dated 2019).
